Measured values reported in PMC9610943, “Truncated Pleurocidin Derivative with High Pepsin Hydrolysis Resistance to Combat Multidrug-Resistant Pathogens” (Pharmaceutics, 2022).
Where no end group is shown, it is not given here.

Assays:
[1] = test system: P. cibarius HNCF44W (blaNDM-1+ tet(X6)); experiment: organism not typed; format: cell-based
Protocol: (§1) S. aureus ATCC 29213, E. coli ATCC 25922, S. enteritidis ATCC 13076 and A. baumannii ATCC 19609 were obtained from the American Type Culture Collection (ATCC). The remaining strains used in the experiment were all preserved strains in our laboratory. All strains were cultured in nutrient broth overnight to the logarithmic phase at 37 °C prior to each experiment.
(§2) The MICs of all drugs were determined by micro-broth dilution method according to CLSI 2018 guidelines. Briefly, a single colony of the bacterial strain was transferred to 1 mL of Mueller Hilton broth (MHB) and overnight at 37 °C and then 10 μL were cultured in a new 1 mL medium for 4 to 6 h, and then the bacterial culture at the logarithmic phase was diluted to 1 × 10^6 CFUs/mL. The assay was performed by adding 100 μL of each peptide solution at various concentrations (0.25 to 128 μg/mL) and 100 μL of diluted bacterial culture to different wells of a 96-well microtiter plate (Corning, NY, USA). After incubation at 37 °C for 16 to 18 h and then read its MIC value. MIC value is defined as the lowest drug concentration without visible bacteria.

MRSA T144 [2] = format: cell-based, Staphylococcus aureus
Protocol: as §2
(§3) Then, the antibacterial activity of the peptides affected by different temperatures and pH were determined according to the determination steps of MICs test.
(§4) In MHB medium, Na^+, K^+, Mg^2+ and Ca^2+ with the final concentrations of 10 mM, fetal bovine serum, plasma or DMEM medium (Hyclone, Logan, UT, USA) with the final concentrations of 10% was added, and then MIC values were measured to evaluate the effects of different cations, serum and plasma on the antibacterial activity of peptides.
(§5) The peptide was incubated with protease (pepsin, trypsin and papain) (Solarbio, Beijing, China) with a final concentration of 1 mg/mL at 37 °C for 1 h, then the mixture of peptide and protease was heated at 100 °C for 30 min, then centrifuged at 13,000× g for 30 min, and the supernatant was taken for MIC determination.

MRSA 1530 = experiment: microbe, parasite or virus in culture; format: cell-based, Staphylococcus aureus; details: 1530
Protocol: as §1, §2

MRSA T144 [3] = experiment: microbe, parasite or virus in culture; format: cell-based, Staphylococcus aureus; details: T144
Protocol: as §1, §2

E. coli B2 = format: cell-based
Protocol: as §2, §3, §4, §5

S. aureus ATCC 29213 = experiment: microbe, parasite or virus in culture; format: cell-based; details: ATCC 29213
Protocol: as §1, §2

E. coli B3-1 (tet(X4)) = experiment: microbe, parasite or virus in culture; format: cell-based; details: B3-1 (tet(X4))
Protocol: as §1, §2

[4] = test system: P. aeruginosa (VIM + tmexCD1-torJ1); experiment: microbe, parasite or virus in culture; format: cell-based; details: VIM + tmexCD1-torJ1
Protocol: as §1, §2

[5] = test system: S. aureus 215 (cfr + LZD^R); experiment: microbe, parasite or virus in culture; format: cell-based; details: S. aureus 215 (cfr + LZD^R); micro-broth dilution CLSI 2018, MHB, 37 °C, 16 to 18 h
Protocol: as §1, §2

E. coli G6 (blaNDM-5) = experiment: microbe, parasite or virus in culture; format: cell-based; details: G6 (blaNDM-5)
Protocol: as §1, §2

E. coli C3 (blaNDM-1) = experiment: microbe, parasite or virus in culture; format: cell-based; details: C3 (blaNDM-1)
Protocol: as §1, §2

P. aeruginosa PA14 = experiment: microbe, parasite or virus in culture; format: cell-based; details: PA14
Protocol: as §1, §2

E. coli ATCC 25922 = experiment: microbe, parasite or virus in culture; format: cell-based; details: ATCC 25922
Protocol: as §1, §2

E. coli 1F28 (tet(X4)) = experiment: microbe, parasite or virus in culture; format: cell-based; details: 1F28 (tet(X4))
Protocol: as §1, §2

A. baumannii ATCC 19609 = experiment: microbe, parasite or virus in culture; format: cell-based; details: ATCC 19609
Protocol: as §1, §2

E. coli CP131 (mcr-3) = experiment: microbe, parasite or virus in culture; format: cell-based; details: CP131 (mcr-3)
Protocol: as §1, §2

E. coli G92 (mcr-1) = experiment: microbe, parasite or virus in culture; format: cell-based; details: G92 (mcr-1)
Protocol: as §1, §2

[6] = test system: E. faecalis A4 (VRE, VanA); experiment: microbe, parasite or virus in culture; format: cell-based; details: A4 (VRE, VanA)
Protocol: as §1, §2

S. aureus G16 (RIF^R) = experiment: microbe, parasite or virus in culture; format: cell-based; details: S. aureus G16 (RIF^R); micro-broth dilution CLSI 2018, MHB, 37 °C, 16 to 18 h
Protocol: as §1, §2

[7] = test system: S. enteritidis ATCC 13076; experiment: microbe, parasite or virus in culture; format: cell-based; details: ATCC 13076
Protocol: as §1, §2

[8] = test system: E. coli B2 (blaNDM-5 + mcr-1); experiment: microbe, parasite or virus in culture; format: cell-based; details: B2 (blaNDM-5 + mcr-1)
Protocol: as §1, §2

## GWKSFFKKWKHVWK [GK-2]
[1]
  MIC: 8 µg/mL
MRSA T144 [2]; T144
  MIC after treatment at 121 °C: 4 µg/mL
  MIC in DMEM (10%): 4 µg/mL
  MIC in Plasma (10%): 4 µg/mL
  MIC in Serum (10%): 8 µg/mL
  MIC in presence of Ca^2+: >128 µg/mL
  MIC in presence of K^+: 4 µg/mL
  MIC in presence of Mg^2+: 4 µg/mL
  MIC in presence of Na^+: 2 µg/mL
  MIC, Control: 8 µg/mL
MRSA T144 [2]; T144, 1 h
  MIC after Papain treatment: >128 µg/mL
  MIC after Pepsin treatment: 64 µg/mL
  MIC after Trypsin treatment: >128 µg/mL
  MIC after treatment at 40 °C: 2 µg/mL
  MIC after treatment at 60 °C: 4 µg/mL
  MIC after treatment at 80 °C: 2 µg/mL
  MIC after treatment at 100 °C: 4 µg/mL
MRSA T144 [2]; T144, 1 h, pH 2
  MIC after treatment at pH 2: 4 µg/mL
MRSA T144 [2]; T144, 1 h, pH 4
  MIC after treatment at pH 4: 4 µg/mL
MRSA T144 [2]; T144, 1 h, pH 6
  MIC after treatment at pH 6: 4 µg/mL
MRSA T144 [2]; T144, 1 h, pH 8
  MIC after treatment at pH 8: 4 µg/mL
MRSA T144 [2]; T144, 1 h, pH 10
  MIC after treatment at pH 10: 4 µg/mL
MRSA T144 [2]; T144, 1 h, pH 12
  MIC after treatment at pH 12: 4 µg/mL
MRSA 1530
  MIC: 32 µg/mL
MRSA T144 [3]
  MIC: 8 µg/mL
E. coli B2; B2
  MIC after treatment at 121 °C: 2 µg/mL
  MIC in DMEM (10%): 4 µg/mL
  MIC in Plasma (10%): 0.5 µg/mL
  MIC in Serum (10%): 4 µg/mL
  MIC in presence of Ca^2+: >128 µg/mL
  MIC in presence of K^+: 2 µg/mL
  MIC in presence of Mg^2+: 32 µg/mL
  MIC in presence of Na^+: 2 µg/mL
  MIC, Control: 2 µg/mL
E. coli B2; B2, 1 h
  MIC after Papain treatment: >128 µg/mL
  MIC after Pepsin treatment: 128 µg/mL
  MIC after Trypsin treatment: >128 µg/mL
  MIC after treatment at 40 °C: 2 µg/mL
  MIC after treatment at 60 °C: 4 µg/mL
  MIC after treatment at 80 °C: 2 µg/mL
  MIC after treatment at 100 °C: 2 µg/mL
E. coli B2; B2, 1 h, pH 2
  MIC after treatment at pH 2: 2 µg/mL
E. coli B2; B2, 1 h, pH 4
  MIC after treatment at pH 4: 4 µg/mL
E. coli B2; B2, 1 h, pH 6
  MIC after treatment at pH 6: 2 µg/mL
E. coli B2; B2, 1 h, pH 8
  MIC after treatment at pH 8: 2 µg/mL
E. coli B2; B2, 1 h, pH 10
  MIC after treatment at pH 10: 2 µg/mL
E. coli B2; B2, 1 h, pH 12
  MIC after treatment at pH 12: 2 µg/mL
S. aureus ATCC 29213
  MIC: 4 µg/mL
E. coli B3-1 (tet(X4))
  MIC: 4 µg/mL
[4]
  MIC: 16 µg/mL
[5]
  MIC: 4 µg/mL
E. coli G6 (blaNDM-5)
  MIC: 2 µg/mL
E. coli C3 (blaNDM-1)
  MIC: 2 µg/mL
P. aeruginosa PA14
  MIC: 16 µg/mL
E. coli ATCC 25922
  MIC: 8 µg/mL
E. coli 1F28 (tet(X4))
  MIC: 16 µg/mL
A. baumannii ATCC 19609
  MIC: 8 µg/mL
E. coli CP131 (mcr-3)
  MIC: 2 µg/mL
E. coli G92 (mcr-1)
  MIC: 2 µg/mL
[6]
  MIC: 16 µg/mL
S. aureus G16 (RIF^R)
  MIC: 8 µg/mL
[7]
  MIC: 4 µg/mL
[8]
  MIC: 2 µg/mL
